Structures can show the parent of a compound that is named as a salt. Where two headings read alike, the source gives them in different places.
Tests used:
MCC13 cells (VN-MCC) = assay: qHTS cell viability (CellTiter-Glo, 72 h; primary and follow-up small molecule screen); type: cell-based, human
MCC26 cells (VN-MCC) = assay: as above; type: cell-based, human
UISO cells (VN-MCC) = assay: as above; type: cell-based, human
WAGA cells (VP-MCC) = assay: as above; type: cell-based, human
MKL-1 cells (VP-MCC) = assay: as above; type: cell-based, human
MKL-2 cells (VP-MCC) = assay: as above; type: cell-based, human
HACAT cells = assay: qHTS cell viability (CellTiter-Glo, 72 h; primary screen), control cell line; type: cell-based, human
HEK293T cells = assay: as above; type: cell-based, human
NIH-3T3 cells = assay: as above; type: cell-based, mouse
CRL-7250 cells = assay: as above; type: cell-based
[1] = system: MCC cell lines (WAGA, MKL-1, MKL-2, MCC13, MCC26, UISO); assay: qHTS cell viability, all six MCC cell lines as a group (mean AUC, MCC.avg); type: cell-based, human
[2] = system: VP-MCC cell lines (WAGA, MKL-1, MKL-2); assay: qHTS cell viability, VP-MCC cell lines as a group (mean AUC, VP.MCC.avg); type: cell-based, human
[3] = system: VN-MCC cell lines (MCC13, MCC26, UISO); assay: qHTS cell viability, VN-MCC cell lines as a group (mean AUC, VN.MCC.avg); type: cell-based, human
[4] = system: control cell lines (HACAT, HEK293T, CRL-7250, NIH-3T3); assay: qHTS cell viability, control cell lines as a group (mean AUC, Control.avg); type: cell-based
[5] = system: six MCC cell lines and four control cell lines; assay: qHTS cell viability, all 10 cell lines screened; type: cell-based
[6] = NPC library, qHTS dose-response AUC, MCC13
[7] = NPC library, qHTS dose-response AUC, MCC26
[8] = NPC library, qHTS dose-response AUC, UISO
[9] = NPC library, qHTS dose-response AUC, WAGA
[10] = NPC library, qHTS dose-response AUC, MKL1
[11] = NPC library, qHTS dose-response AUC, MKL2
[12] = NPC library, qHTS dose-response AUC, HACAT control
[13] = NPC library, qHTS dose-response AUC, HEK293T control
[14] = NPC library, qHTS dose-response AUC, NIH3T3 control
[15] = NPC library, qHTS dose-response AUC, CRL7250 control
[16] = NPC library, mean AUC of six MCC cell lines
[17] = NPC library, mean AUC of VP-MCC cell lines
[18] = NPC library, therapeutic window: Control avg AUC minus VP-MCC avg AUC
[19] = NPC library, mean AUC of VN-MCC cell lines
[20] = NPC library, therapeutic window: Control avg AUC minus VN-MCC avg AUC
[21] = NPC library, mean AUC of control cell lines
[22] = NPC library, therapeutic window: Control avg AUC minus MCC avg AUC

Row | Compound | MCC13_AUC (MCC13 cells (VN-MCC); [6]) | MCC26_AUC (MCC26 cells (VN-MCC); [7]) | UISO_AUC (UISO cells (VN-MCC); [8]) | WAGA_AUC (WAGA cells (VP-MCC); [9]) | MKL1_AUC (MKL-1 cells (VP-MCC); [10]) | MKL2_AUC (MKL-2 cells (VP-MCC); [11]) | HACAT_AUC (HACAT cells; [12]) | HEK293T_AUC (HEK293T cells; [13]) | NIH3T3_AUC (NIH-3T3 cells; [14]) | CRL7250_AUC (CRL-7250 cells; [15]) | MCC_Avg_AUC [1, 16] | VP-MCC_Avg_AUC [2, 17] | Control-VP-MCC [2, 18] | VN-MCC_Avg_AUC [3, 19] | Control-VN-MCC [3, 20] | Control_Avg_AUC [4, 21] | Control-MCC [5, 22] | other results
1 | CN(CC1(C)CCCO1)S(=O)(=O)c1ccc(Cl)c(S(N)(=O)=O)c1 (centres unmarked) [Mefruside] | 487.176 | 494.694 | 490.08 | 408.321 | 435.185 | 389.363 | 466.668 | 446.841 | 485.692 | 471.553 | 450.803 | 410.957 | 56.732 | 490.65 | -22.9615 | 467.688 | 16.8852 | 
2 | Cl.Oc1ccc2c3c1O[C@H]1[C@@H](O)C=C[C@H]4[C@@H](C2)NCC[C@@]341 [N-Normorphine hydrochloride] |  |  |  |  |  |  |  |  |  |  |  |  |  |  |  |  |  | MCC13_AUC (MCC13 cells (VN-MCC)): 466.371; MCC26_AUC (MCC26 cells (VN-MCC)): 408.273; UISO_AUC (UISO cells (VN-MCC)): 440.259; WAGA_AUC (WAGA cells (VP-MCC)): 412.634; MKL1_AUC (MKL-1 cells (VP-MCC)): 418.832; MKL2_AUC (MKL-2 cells (VP-MCC)): 420.551; HACAT_AUC (HACAT cells): 477.868; HEK293T_AUC (HEK293T cells): 480.826; NIH3T3_AUC (NIH-3T3 cells): 490.376; CRL7250_AUC (CRL-7250 cells): 485.195; MCC_Avg_AUC [1]: 427.82; Control-VP-MCC [2]: 66.2273; VP-MCC_Avg_AUC [2]: 417.339; Control-VN-MCC [3]: 45.2651; VN-MCC_Avg_AUC [3]: 438.301; Control_Avg_AUC [4]: 483.566; Control-MCC [5]: 55.7462
3 | CCCCOc1ccc(C(=O)CCN2CCCCC2)cc1 [Dyclonine hydrochloride] | 493.918 | 466.065 | 466.874 | 405.649 | 424.663 | 401.71 | 461.491 | 441.492 | 489.536 | 454.097 | 443.147 | 410.674 | 50.9798 | 475.619 | -13.9648 | 461.654 | 18.5075 | 
4 | N=C(N)NC(=O)c1nc(Cl)c(N)nc1N [Amiloride] | 460.482 | 436.049 | 438.294 | 426.991 | 439.734 | 417.455 | 483.146 | 497.776 | 492.231 | 484.959 | 436.501 | 428.06 | 61.468 | 444.942 | 44.5863 | 489.528 | 53.0271 | 
